{
  "source": "patent US7569554B2",
  "about": "“Synergistic treatment of cancer using immunomers in conjunction with therapeutic agents” (Idera Pharmaceuticals, Inc., priority 2003, dated 2009)",
  "key": {"4T1 breast tumor": {"system": "4T1 breast tumor", "experiment": "4T1 breast tumor in BALB/c mice, combination with doxorubicin", "format": "in vivo, mouse", "details": "IMO 2 1 mg/kg peritumoral, doxorubicin 30 mg/kg i.p; FIG. 24A", "method": "For the 4T1 tumor models, 5×10^5 cells/mouse in. 100 μl PBS were implanted into BALB/c mice in the lower right flank. On day 5 when the average tumor size reached 50 mm^2, the mice were given i.p injections of 30 mg/kg doxorubicin (Bedford lab, Bedford, Ohio) for three times on days 5, 6 and 7. IMO 2 (1 mg/kg) dissolved in 100 μl PBS was administrated by peritumoral injection at twice a week interval for a total of six times."}, "[1]": {"system": "human prostate cancer PC3 xenografts", "experiment": "PC3 xenograft experiment repeated with taxotere", "format": "in vivo, mouse", "design": "unit: mg", "details": "15 mg/kg", "method": "(§1) PC3 cells were cultured in 90% Ham's, F12K Medium with 10% Fetal Bovine Serum (FBS), in presence of 100 U/ml Penicillin and 100 μg/ml Streptomycin to establish the Human Prostate cancer model (PC3). Male athymic nude mice, 4-6 weeks old (Frederick Cancer Research and Development Center, Frederick, Md.), were accommodated for 6 days for environmental adjustment prior to the study. Cultured PC3 cells were harvested from the monolayer cultures, washed twice with Ham's, F12K Medium (10% FBS), resuspended in FBS-free Ham's, F12K Medium: Matrigel basement membrane matrix (Becton Dickinson Labware, Bedford, Mass.) (5:1; V/V), and injected subcutaneously (5×10^6 cells, total volume 0.2 ml) into the left inguinal area of each of the mice. The animals were monitored by general clinical observation, body weight, and tumor growth. Tumor growth was monitored by the measurement, with calipers, of two perpendicular diameters of the implant. Tumor mass (weight in grams) was calculated by the formula, 1/2a X b^2, where ‘a’ is the long diameter (cm) and ‘b’ is the short diameter (cm). When the mean tumor sizes reached ˜80 mg, the animals bearing human cancer xenografts were randomly divided into the treatment and control groups (5 animals/group). The control group received sterile physiological saline (0.9% NaCl) only. Immunomer 255 or 285, aseptically dissolved in physiological saline, was administered by subcutaneously injection at dose of 0.5 or 1.0 mg/kg/day, 3 doses/week. […] The detailed treatment schedule is shown as follows.\nTaxotere was administered on days 0 and 7. Immunomer 165 was administered 5 days per week. Immunomers 255 and 285 were administered on days 0, 2, 4, 7, 9 and 11."}, "CD69+ and CD86+ cells": {"system": "CD69+ and CD86+ cells", "experiment": "Activation of CD69+ and CD86+ cells in peripheral blood", "format": "in vivo, mouse", "details": "docetaxel 30 mg/kg days 1 and 3, IMO 2 5 mg/kg days 1, 3, 5, 7; FIG. 24C"}, "[2]": {"experiment": "In vitro cytokine induction profiles of IMO compounds (FIG. 16)", "format": "cell-based"}, "BALB/c mice": {"system": "BALB/c mice", "experiment": "In vivo serum cytokine induction", "design": "species or system mouse", "details": "for IL-6 (serum) / IL-12 (serum): 10 mg/kg, 4 hrs", "method": "To assess serum cytokine levels, BALB/c mice (n=5) were injected intraperitoneally (i.p), subcutaneously (s.c) or intramuscularly (i.m) with IMO compounds at 10 mg/kg (single dose). Sera was collected by retro-orbital bleeding at 4 hrs of IMO administration and determined IL-112 and IL-6 by sandwich ELISA. Cytokine antibodies and standards were purchased from PharMingen (San Diego, Calif.).\nTo evaluate the immunopharmacological effects in vivo, IMO compounds, CpG immunomers, and non-CpG oligos were administered to BALB/c mice i.p, s.c or i.m at a dose of 10 mg/kg and their serum was evaluated for IL-12 and IL-6 after 4 hrs."}, "CT26.CL25 colon tumor": {"system": "CT26.CL25 colon tumor", "experiment": "Subcutaneous CT26.CL25 colon tumor in BALB/c mice", "format": "in vivo, mouse", "method": "For subcutaneous solid tumor models, 10^6 CT26.CL25 cells/mouse or 5×10^5 B16.F0 cells/mouse in 100 μl of PBS were implanted into BALB/c or C57BL/6 mice in the lower right flank. The tumor size reached to 50 to 200 mg on day 6 for CT26.CL25 and on day 8 for B16.F0 post tumor inoculation. The tumor bearing mice were then treated with peritumoral injection of IMO compounds or non-CpG DNA control at a dose of 1 mg/kg every other day for 10 times. Tumor growth was recorded with the use of calipers, by measuring the long and short diameters of the tumor. Tumor volumes were measured with a caliper and the formula (0.5×length×width^2) was applied to determine tumor growth kinetics.\nThe antitumor activity of IMO compounds in a murine colon carcinoma CT26.CL25 model was evaluated. BALB/c mice bearing CT26.CL25 subcutaneous solid tumors were treated with 1 mg/kg IMO compounds by peritumoral administration every other day for 10 times starting on day 6 following tumor inoculation."}, "[3]": {"system": "Her-2 positive BT-474 cells", "experiment": "Lysis of BT-474 cells by IMO-activated human PBMCs in the presence of Herceptin", "format": "cell-based", "details": "FIG. 26"}, "[4]": {"system": "human prostate cancer PC3 xenografts", "experiment": "Tumor mass, human prostate cancer PC3 xenografts in nude mice, with Gemcitabine", "format": "in vivo, mouse", "details": "160 mg/kg", "method": "as §1"}, "[5]": {"experiment": "Body weight and clinical observation of PC3 tumor-bearing nude mice", "format": "in vivo, mouse", "details": "compared with controls"}},
  "note": "Counter-ions that a name gives are not always drawn.",
  "data": [
    {"molecule": "COc1cccc2c1C(=O)c1c(O)c3c(c(O)c1C2=O)C[C@@](O)(C(=O)CO)C[C@@H]3O[C@H]1C[C@H](N)[C@H](O)[C@H](C)O1", "note": "[doxorubicin, reference compound]", "values": [
      {"measurement": "Inhibition of 4T1 tumor growth", "setting": "4T1 breast tumor", "value": "strong inhibition"}
    ]},
    {"molecule": "CC(=O)O[C@@]12CO[C@@H]1C[C@H](O)[C@@]1(C)C(=O)[C@H](O)C3=C(C)[C@@H](OC(=O)[C@H](O)[C@@H](NC(=O)OC(C)(C)C)c4ccccc4)C[C@@](O)([C@@H](OC(=O)c4ccccc4)[C@H]21)C3(C)C", "note": "[Taxotere, Docetaxel]", "values": [
      {"measurement": "In vivo anti-cancer activity (tumor mass)", "setting": "[1]; Day 0.00", "value": 56.64},
      {"measurement": "In vivo anti-cancer activity (tumor mass)", "setting": "[1]; Day 3.00", "value": 128.51},
      {"measurement": "In vivo anti-cancer activity (tumor mass)", "setting": "[1]; Day 6.00", "value": 320.63},
      {"measurement": "In vivo anti-cancer activity (tumor mass)", "setting": "[1]; Day 9.00", "value": 598.69},
      {"measurement": "In vivo anti-cancer activity (tumor mass)", "setting": "[1]; Day 12.00", "value": 924.91},
      {"measurement": "In vivo anti-cancer activity (tumor mass)", "setting": "[1]; Day 15.00", "value": 1589.08},
      {"measurement": "Percentage of CD69+ and CD86+ cells", "setting": "CD69+ and CD86+ cells", "value": "did not inhibit such activations"}
    ]},
    {"molecule": "IMO 1: IMO compound of FIG. 15, first in order (SEQ ID NO 13) (DNA TCTGACGTTCT; listed as DNA, chemistry not given here)", "values": [
      {"measurement": "IL-12 secretion in vitro", "setting": "[2]", "value": "strong IL-12 secretion"},
      {"measurement": "IL-6 (serum)", "setting": "BALB/c mice; Intramuscular (i.m)", "value": "5.8 ± 0.5", "unit": "ng/mL"},
      {"measurement": "IL-12 (serum)", "setting": "BALB/c mice; Intramuscular (i.m)", "value": "109.3 ± 25", "unit": "ng/mL"},
      {"measurement": "IL-6 (serum)", "setting": "BALB/c mice; Intraperitoneal (i.p)", "value": "5.9 ± 0.2", "unit": "ng/mL"},
      {"measurement": "IL-12 (serum)", "setting": "BALB/c mice; Intraperitoneal (i.p)", "value": "59.0 ± 11", "unit": "ng/mL"},
      {"measurement": "IL-6 (serum)", "setting": "BALB/c mice; Subcutaneous (s.c)", "value": "4.3 ± 0.3", "unit": "ng/mL"},
      {"measurement": "IL-12 (serum)", "setting": "BALB/c mice; Subcutaneous (s.c)", "value": "98.3 ± 15", "unit": "ng/mL"},
      {"measurement": "Average tumor growth inhibition", "setting": "CT26.CL25 colon tumor; day 24, compared with non-CpG DNA treated mice, 1 mg/kg peritumoral", "value": 72, "unit": "%"}
    ]},
    {"molecule": "IMO 3: IMO compound of FIG. 15 (SEQ ID NO 18) containing a human-specific motif (DNA TCTGTCNTTCT; listed as DNA, further chemistry not given here)", "values": [
      {"measurement": "Serum IL-12 secretion in mice", "setting": "BALB/c mice; 4 hr after administration, FIG. 25B", "value": "induced IL-12 secretion"},
      {"measurement": "Lysis of BT-474 cells", "setting": "[3]", "value": "induces lysis of Her-2 positive BT-474 cells in the presence of Herceptin"},
      {"measurement": "Antitumor activity", "setting": "CT26.CL25 colon tumor; FIG. 25A", "value": "potent antitumor activity"}
    ]},
    {"molecule": "Nc1ccn([C@@H]2O[C@H](CO)[C@@H](O)C2(F)F)c(=O)n1", "note": "[Gemcitabine, Gemcitabine HCl]", "values": [
      {"measurement": "Tumor mass", "setting": "[4]; Day 0", "value": 82.6, "unit": "mg"},
      {"measurement": "Tumor mass", "setting": "[4]; Day 3", "value": 73.0, "unit": "mg"},
      {"measurement": "Tumor mass", "setting": "[4]; Day 9", "value": 35.7, "unit": "mg"},
      {"measurement": "Tumor mass", "setting": "[4]; Day 12", "value": 36.2, "unit": "mg"},
      {"measurement": "Tumor mass", "setting": "[4]; Day 15", "value": 31.7, "unit": "mg"},
      {"measurement": "Tumor mass", "setting": "[4]; Day 18", "value": 40.8, "unit": "mg"},
      {"measurement": "Tumor mass", "setting": "[4]; Day 24", "value": 56.5, "unit": "mg"},
      {"measurement": "Tumor mass", "setting": "[4]; Day 27", "value": 68.0, "unit": "mg"},
      {"measurement": "Tumor mass", "setting": "[4]; Day 30", "value": 89.4, "unit": "mg"},
      {"measurement": "Tumor mass", "setting": "[4]; Day 33", "value": 106.5, "unit": "mg"},
      {"measurement": "Tumor mass", "setting": "[4]; Day 36", "value": 144.2, "unit": "mg"},
      {"measurement": "Tumor mass", "setting": "[4]; Day 39", "value": 175.3, "unit": "mg"},
      {"measurement": "Tumor mass", "setting": "[4]; Day 42", "value": 269.1, "unit": "mg"},
      {"measurement": "Tumor mass", "setting": "[4]; Day 45", "value": 383.8, "unit": "mg"},
      {"measurement": "Tumor mass", "setting": "[4]; Day 48", "value": 538.6, "unit": "mg"},
      {"measurement": "Body weight gains", "setting": "[5]", "value": "body weight loss in the first week and recovered in a week afterwards"}
    ]}
  ]
}
